Measured values taken from ChEMBL document CHEMBL4251633, “Design, synthesis, biological evaluation and cocrystal structures with tubulin of chiral β-lactam bridged combretastatin A-4 analogues as potent antitumor agents” (Eur J Med Chem, 2018).
Calls of active or inactive are those of the source. The rule behind the calls is not given here.

What was measured:
HeLa [1] = assay: Inhibition of alpha-tubulin polymerization in human HeLa cells assessed as increase in ratio of supernatant faction to pellet fraction at 500 nM after 6 hrs by Western blot analysis; format: cell-based
HeLa [2] = assay: Induction of apoptosis in human HeLa cells assessed as early apoptotic cells at 100 nM after 48 hrs by Annexin V-FITC/propidium iodide staining based flow cytometry (reference value: 0.7%); format: functional
HeLa [3] = assay: Induction of apoptosis in human HeLa cells assessed as necrotic cells at 100 nM after 48 hrs by Annexin V-FITC/propidium iodide staining based flow cytometry (reference value: 0.9%); format: functional
HeLa [4] = assay: Cell cycle arrest in human HeLa cells assessed as accumulation at G2/M-phase at 50 nM after 24 hrs by propidium iodide staining based flow cytometry; format: functional
HeLa [5] = assay: Induction of apoptosis in human HeLa cells assessed as live cells at 100 nM after 48 hrs by Annexin V-FITC/propidium iodide staining based flow cytometry (reference value: 96.5%); format: functional
HeLa [6] = assay: Induction of apoptosis in human HeLa cells assessed as late apoptotic cells at 100 nM after 48 hrs by Annexin V-FITC/propidium iodide staining based flow cytometry (reference value: 2%); format: functional
Homo sapiens [7] = organism: Homo sapiens; assay: Disruption of microtubule structure in human SKOV3 cells assessed as decrease in density at 50 nM after 24 hrs by DAPI staining based immunofluorescence assay; format: cell-based
HeLa [8] = assay: Induction of apoptosis in human HeLa cells assessed as necrotic cells at 50 nM after 48 hrs by Annexin V-FITC/propidium iodide staining based flow cytometry (reference value: 0.9%); format: functional
Mus musculus [9] = assay: Toxicity in Balb/c nude mouse xenografted with human A2780 cells assessed as abnormality in kidney at 7.5 mg/kg, ip once in every 2 days measured after 14 days by H and E staining based assay; format: organism-based; conditions: in vivo, 336 h
[10] = Acute toxicity in ICR mouse assessed as survival rate at 35 mg/kg, ip measured on day 14 (reference value: 100%); format: organism-based; conditions: in vivo
Mus musculus [11] = assay: Acute toxicity in ICR mouse assessed as death at 25 mg/kg, ip measured after 3 days; format: organism-based; conditions: in vivo, 72 h
HeLa [12] = assay: Induction of apoptosis in human HeLa cells assessed as late apoptotic cells at 50 nM after 48 hrs by Annexin V-FITC/propidium iodide staining based flow cytometry (reference value: 2%); format: functional
Mus musculus [13] = assay: Toxicity in Balb/c nude mouse xenografted with human A2780 cells assessed as abnormality in spleen at 7.5 mg/kg, ip once in every 2 days measured after 14 days by H and E staining based assay; format: organism-based; conditions: in vivo, 336 h
HeLa [14] = assay: Upregulation of p53 protein expression in human HeLa cells after 48 hrs by Western blot analysis; format: functional, cell-based
HeLa [15] = assay: Induction of apoptosis in human HeLa cells assessed as late apoptotic cells at 200 nM after 48 hrs by Annexin V-FITC/propidium iodide staining based flow cytometry (reference value: 2%); format: functional
HeLa [16] = assay: Upregulation of Bax protein expression in human HeLa cells after 48 hrs by Western blot analysis; format: functional, cell-based
Mus musculus [17] = assay: Acute toxicity in ICR mouse assessed as death at 25 to 95 mg/kg, ip measured after 2 days; format: organism-based; conditions: in vivo, 48 h
[18] = molecular target: Mitotic checkpoint serine/threonine-protein kinase BUB1 beta (Homo sapiens) (UniProt O60566); assay: Induction of BubR1 hyperphosphorylation in human HeLa cells by Western blot analysis; format: cell-based
Mus musculus [19] = assay: Anti-vascular activity in Balb/c nude mouse assessed as inhibition of VEGF-induced capillary blood vessel formation by measuring reduction in hemoglobin level using sc injected matrigel plug supplemented with 100 nM test compound mixed with VEGF and measured after 1 week by matrigel plug assay; format: functional, organism-based
MDA-MB-231 = assay: Anticlonogenic activity against human MDA-MB-231 cells incubated for 48 hrs followed by replacement with fresh medium measured after 7 to 10 days by gentian violet staining based assay; format: functional, cell-based
HeLa [20] = assay: Induction of apoptosis in human HeLa cells after 48 hrs by Annexin V-FITC/propidium iodide staining based flow cytometry; format: functional, cell-based
HeLa [21] = assay: Upregulation of Cyclin-B1 protein expression in human HeLa cells at 50 to 200 nM by Western blot analysis; format: functional, cell-based
HeLa [22] = assay: Induction of apoptosis in human HeLa cells assessed as necrotic cells at 200 nM after 48 hrs by Annexin V-FITC/propidium iodide staining based flow cytometry (reference value: 0.9%); format: functional
Mus musculus [23] = assay: Anti-vascular activity in Balb/c nude mouse assessed as inhibition of VEGF-induced capillary blood vessel formation using sc injected matrigel plug supplemented with 100 nM test compound mixed with VEGF and measured after 1 week by matrigel plug assay; format: functional, organism-based
HUVEC = assay: Antiangiogenic activity against HUVEC assessed as disruption of capillary-like tube formation at 25 to 50 nM after 12 hrs by inverted microscopic method; format: functional, cell-based; conditions: Homo sapiens
Mus musculus [24] = assay: Acute toxicity in ICR mouse assessed as death at 25 to 50 mg/kg, ip measured after 4 days; format: organism-based; conditions: in vivo, 96 h
[25] = Acute toxicity in ICR mouse assessed as survival rate at 70 mg/kg, ip measured on day 14 (reference value: 100%); format: organism-based; conditions: in vivo
Sus scrofa = organism: Sus scrofa; assay: Inhibition of pig brain tubulin polymerization measured every 1 min for 20 mins by spectrophotometric method
Mus musculus [26] = assay: Toxicity in Balb/c nude mouse xenografted with human A2780 cells assessed as abnormality in liver at 7.5 mg/kg, ip once in every 2 days measured after 14 days by H and E staining based assay; format: organism-based; conditions: in vivo, 336 h
[27] = Acute toxicity in ICR mouse assessed as survival rate at 25 mg/kg, ip measured on day 14 (reference value: 100%); format: organism-based; conditions: in vivo
HeLa [28] = assay: Induction of apoptosis in human HeLa cells assessed as early apoptotic cells at 50 nM after 48 hrs by Annexin V-FITC/propidium iodide staining based flow cytometry (reference value: 0.7%); format: functional
Homo sapiens [29] = organism: Homo sapiens; assay: Disruption of microtubule structure in human SKOV3 cells assessed as decrease in density at 100 nM after 24 hrs by DAPI staining based immunofluorescence assay; format: cell-based
Mus musculus [30] = assay: Acute toxicity in ICR mouse assessed as death at 25 to 50 mg/kg, ip measured after 5 to 14 days; format: organism-based; conditions: in vivo
A2780 [31] = assay: Antitumor activity against human A2780 cells xenografted in Balb/c nude mouse assessed as tumor weight inhibition at 7.5 mg/kg, ip once in every 2 days measured up to 14 days; format: functional, organism-based
Mus musculus [32] = assay: Toxicity in Balb/c nude mouse xenografted with human A2780 cells assessed as body weight loss at 7.5 mg/kg, ip once in every 2 days measured up to 14 days; format: organism-based; conditions: in vivo
HeLa [33] = assay: Induction of apoptosis in human HeLa cells assessed as early apoptotic cells at 200 nM after 48 hrs by Annexin V-FITC/propidium iodide staining based flow cytometry (reference value: 0.7%); format: functional
HeLa [34] = assay: Upregulation of cleaved PARP1 protein expression in human HeLa cells after 48 hrs by Western blot analysis; format: functional, cell-based
Mus musculus [35] = assay: Acute toxicity in ICR mouse assessed as death at 25 to 95 mg/kg, ip measured after 1 day; format: organism-based; conditions: in vivo, 24 h
HeLa [36] = assay: Induction of apoptosis in human HeLa cells assessed as live cells at 200 nM after 48 hrs by Annexin V-FITC/propidium iodide staining based flow cytometry (reference value: 96.5%); format: functional
HeLa [37] = assay: Induction of histone-H3 phosphorylation in human HeLa cells by Western blot analysis; format: cell-based
HeLa [38] = assay: Induction of apoptosis in human HeLa cells assessed as live cells at 50 nM after 48 hrs by Annexin V-FITC/propidium iodide staining based flow cytometry (reference value: 96.5%); format: functional
[39] = Acute toxicity in ICR mouse assessed as survival rate at 95 mg/kg, ip measured on day 14 (reference value: 100%); format: organism-based; conditions: in vivo
[40] = Acute toxicity in ICR mouse assessed as survival rate at 50 mg/kg, ip measured on day 14 (reference value: 100%); format: organism-based; conditions: in vivo
A2780 [41] = assay: Antitumor activity against human A2780 cells xenografted in Balb/c nude mouse assessed as induction of tumor necrosis at 7.5 mg/kg, ip once in every 2 days measured after 14 days by H and E staining based assay; format: functional, organism-based
A2780 [42] = assay: Antitumor activity against human A2780 cells xenografted in Balb/c nude mouse assessed as tumor volume inhibition at 7.5 mg/kg, ip once in every 2 days measured up to 14 days relative to control; format: functional
A2780 [43] = assay: Antitumor activity against human A2780 cells xenografted in Balb/c nude mouse assessed as isolated tumor weight inhibition at 7.5 mg/kg, ip once in every 2 days measured after 14 days; format: functional, organism-based
[44] = Growth inhibition of HOSEC at 1 uM after 48 hrs by MTT assay relative to control; conditions: human, HOSEC cells; read-out: GI
HeLa [45] = assay: Cell cycle arrest in human HeLa cells assessed as accumulation at G2/M-phase at 50 to 100 nM after 24 hrs by propidium iodide staining based flow cytometry; format: functional

Chain of Mitotic checkpoint serine/threonine-protein kinase BUB1 beta (Homo sapiens) (O60566 whole entry): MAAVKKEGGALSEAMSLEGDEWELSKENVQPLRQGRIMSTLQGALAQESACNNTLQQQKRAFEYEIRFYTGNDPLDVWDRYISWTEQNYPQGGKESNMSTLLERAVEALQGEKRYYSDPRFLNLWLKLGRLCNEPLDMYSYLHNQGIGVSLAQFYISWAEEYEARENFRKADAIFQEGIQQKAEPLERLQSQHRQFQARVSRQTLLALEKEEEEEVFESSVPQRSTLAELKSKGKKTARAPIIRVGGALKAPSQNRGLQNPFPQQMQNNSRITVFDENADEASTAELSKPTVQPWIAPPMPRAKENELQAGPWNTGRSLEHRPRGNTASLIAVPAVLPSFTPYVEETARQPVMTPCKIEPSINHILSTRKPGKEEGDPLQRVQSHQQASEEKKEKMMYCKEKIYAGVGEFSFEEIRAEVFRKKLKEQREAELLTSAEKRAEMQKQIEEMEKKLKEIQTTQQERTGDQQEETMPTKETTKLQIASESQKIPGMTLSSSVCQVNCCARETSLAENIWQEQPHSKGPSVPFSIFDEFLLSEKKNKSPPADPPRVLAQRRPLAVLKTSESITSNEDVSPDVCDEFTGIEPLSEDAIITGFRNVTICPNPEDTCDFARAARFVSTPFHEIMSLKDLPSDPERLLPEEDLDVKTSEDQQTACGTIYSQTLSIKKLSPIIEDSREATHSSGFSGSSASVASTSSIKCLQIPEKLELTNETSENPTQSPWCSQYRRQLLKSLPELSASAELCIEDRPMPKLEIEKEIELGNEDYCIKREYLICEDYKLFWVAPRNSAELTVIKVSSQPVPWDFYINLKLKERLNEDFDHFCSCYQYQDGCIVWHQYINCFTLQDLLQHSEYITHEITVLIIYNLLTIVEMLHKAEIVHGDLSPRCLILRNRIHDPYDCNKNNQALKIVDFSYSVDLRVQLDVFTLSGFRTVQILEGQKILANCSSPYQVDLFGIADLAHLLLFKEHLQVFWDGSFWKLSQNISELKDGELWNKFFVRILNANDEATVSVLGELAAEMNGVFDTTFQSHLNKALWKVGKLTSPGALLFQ

## COc1ccc(/C=C\c2cc(OC)c(OC)c(OC)c2)cc1O [COMBRETASTATIN A4]
HeLa [1]
  tubulin polymerization inhibition (active/inactive): Active
HeLa [2]
  Activity: 33.3%
HeLa [3]
  Activity: 7.5%
HeLa [4]
  Activity: 100%
HeLa [5]
  Activity: 30%
HeLa [6]
  Activity: 29.2%
Homo sapiens [7]
  Activity: Active

## CC(=O)O[C@H]1C(=O)[C@@]2(C)[C@H]([C@H](OC(=O)c3ccccc3)[C@]3(O)C[C@H](OC(=O)[C@H](O)[C@@H](NC(=O)c4ccccc4)c4ccccc4)C(C)=C1C3(C)C)[C@]1(OC(C)=O)CO[C@@H]1C[C@@H]2O
HeLa [1]
  tubulin polymerization inhibition (active/inactive): inactive
Homo sapiens [7]
  Activity: inactive

## COc1ccc([C@H]2[C@H](CO)C(=O)N2c2cc(OC)c(OC)c(OC)c2)cc1O
HeLa [8]
  Activity: 13%
Mus musculus [9]
  Activity: Non-Toxic
HeLa [1]
  tubulin polymerization inhibition (active/inactive): Active
[10]
  survival at 14 day: 90%
Mus musculus [11]
  Activity: Non-Toxic
HeLa [12]
  Activity: 20.1%
Mus musculus [13]
  Activity: Non-Toxic
HeLa [14]
  Activity: Dose-dependent effect
HeLa [2]
  Activity: 32.9%
HeLa [3]
  Activity: 6.1%
HeLa [15]
  Activity: 34.6%
HeLa [16]
  Activity: Dose-dependent effect
Mus musculus [17]
  Activity: Non-Toxic
[18]
  Activity: Dose-dependent effect
Mus musculus [19]
  inhibition: Active
MDA-MB-231
  Activity: Dose-dependent effect
HeLa [20]
  Activity: Dose-dependent effect
HeLa [21]
  Activity: Active
HeLa [22]
  Activity: 6.7%
Mus musculus [23]
  inhibition: Active
HUVEC
  Activity: Active
Mus musculus [24]
  Activity: Non-Toxic
[25]
  survival at 14 day: 30%
Sus scrofa
  inhibition: Dose-dependent effect
Mus musculus [26]
  Activity: Non-Toxic
[27]
  survival at 14 day: 100%
HeLa [28]
  Activity: 18.6%
Homo sapiens [29]
  Activity: Active
Mus musculus [30]
  Activity: Non-Toxic
A2780 [31]
  inhibition: Active
Mus musculus [32]
  Activity: Non-Toxic
HeLa [33]
  Activity: 36.1%
HeLa [5]
  Activity: 36.3%
HeLa [34]
  Activity: Dose-dependent effect
Mus musculus [35]
  Activity: Non-Toxic
HeLa [36]
  Activity: 22.6%
HeLa [37]
  Activity: Dose-dependent effect
HeLa [38]
  Activity: 48.2%
[39]
  survival at 14 day: 20%
[40]
  survival at 14 day: 90%
A2780 [41]
  Activity: Active
A2780 [42]
  inhibition in vivo at 7.5 mg/kg: 78.9%
A2780 [43]
  inhibition: Active
[44]
  inhibition at 48 h, 1 µM: < 50%
HeLa [45]
  Activity: Active
HeLa [6]
  Activity: 24.6%
